Literature values in article PMC9762682, “Tocotrienols: Exciting Biological and Pharmacological Properties of Tocotrienols and Naturally Occurring Compounds, Part II” (Annals of clinical case reports, 2022).

Key:
[1] = test system: Melanoma cells; parameters: method as in PMID 29606130
[2] = test system: Hela cells; parameters: method as in PMID 29606130; value at effective dose: unit not given here; conditions: for effective dose / percentage of control at effective dose / value at effective dose: 48 h;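 as to IC50: anti-proliferation of cancer cells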
[3] = test system: Prostate cancer cells; parameters: method as in PMID 29606130; value at effective dose: scale not given here; conditions: for effective dose / percentage of control at effective dose / value at effective dose: 48 h;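 as to IC50: anti-proliferation of cancer cells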
[4] = test system: Breast cancer cells; parameters: method as in PMID 29606130; value at effective dose: unit not given here;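 as to IC50: anti-proliferation of cancer cells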
[5] = test system: B-Lymphocyte cells; parameters: method as in PMID 29606130; value at effective dose: unit not given here;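 as to IC50: anti-proliferation of cancer cells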
[6] = test system: Lung cancer cells; parameters: method as in PMID 29606130; value at effective dose: unit not given here
[7] = test system: Pancreas cancer cells; parameters: method as in PMID 29606130; value at effective dose: unit not given here; conditions: for effective dose / percentage of control at effective dose / value at effective dose: 48 h
[8] = test system: T-cells (Jurkat); parameters: method as in PMID 29606130; value at effective dose: unit not given here
[9] = test system: Liver cancer cells; parameters: method as in PMID 29606130; value at effective dose: unit not given here; conditions: for effective dose / percentage of control at effective dose / value at effective dose: 48 h

## COc1cc2c(cc1O)CC[C@@H]1[C@@H]2CC[C@]2(C)[C@@H](O)CC[C@@H]12 [2-Methoxyestradiol]
[1]
  effective dose: 10 µM
  percentage of control at IC50 dose: 25%
  percentage of control at effective dose: 11%
[2]
  IC50: 2.5 µM
  percentage of control at IC50 dose: 48%
  effective dose: 20 µM
  percentage of control at effective dose: 13%
  value at effective dose: 4.3 ± 1.5
[3]
  percentage of control at IC50 dose: 39%
  effective dose: 10 µM
  percentage of control at effective dose: 30%
  value at effective dose: 1.7 ± 1.5
[4]
  IC50: 10 µM
  effective dose: 20 µM
  percentage of control at IC50 dose: 45%
  percentage of control at effective dose: 44%
  value at effective dose: 8.0 ± 2.0
[5]
  effective dose: 5 µM
  percentage of control at IC50 dose: 5%
  percentage of control at effective dose: 33%
  value at effective dose: 4.0 ± 2.0
[6]
  effective dose: 10 µM
  percentage of control at IC50 dose: 17%
  percentage of control at effective dose: 11%
  value at effective dose: 2.3 ± 1.5
[7]
  IC50: 40 µM
  percentage of control at IC50 dose: 42%
  effective dose: 40 µM
  percentage of control at effective dose: 42%
  value at effective dose: 20.0 ± 2.0
[8]
  effective dose: 5 µM
  percentage of control at IC50 dose: 8%
  percentage of control at effective dose: 8%
  value at effective dose: 31.3 ± 5.7
[9]
  IC50: 5 µM
  percentage of control at IC50 dose: 45%
  effective dose: 10 µM
  percentage of control at effective dose: 27%
  value at effective dose: 19.7 ± 2.1

## O=C1C[C@@H]2[C@@H](CO)[C@H](O)C[C@@H]2O1 [(−) Corey Lactone]
[1]
  IC50: 80 µM
  effective dose: 40 µM
  percentage of control at IC50 dose: 46%
  percentage of control at effective dose: 62%
[2]
  effective dose: 80 µM
  percentage of control at effective dose: 66%
  value at effective dose: 36.0 ± 5.6
[3]
  IC50: 80 µM
  percentage of control at IC50 dose: 51%
  effective dose: 40 µM
  percentage of control at effective dose: 60%
  value at effective dose: 23.3 ± 2.1
[4]
  IC50: 80 µM
  effective dose: 40 µM
  percentage of control at IC50 dose: 55%
  percentage of control at effective dose: 77%
  value at effective dose: 17.7 ± 3.2
[5]
  IC50: 40 µM
  effective dose: 20 µM
  percentage of control at IC50 dose: 37%
  percentage of control at effective dose: 59%
  value at effective dose: 5.3 ± 1.5
[6]
  IC50: 80 µM
  effective dose: 40 µM
  percentage of control at IC50 dose: 44%
  percentage of control at effective dose: 64%
  value at effective dose: 17.3 ± 3.8
[7]
  IC50: 80 µM
  percentage of control at IC50 dose: 54%
  effective dose: 40 µM
  percentage of control at effective dose: 58%
  value at effective dose: 30.7 ± 1.2
[8]
  IC50: 80 µM
  effective dose: 40 µM
  percentage of control at IC50 dose: 29%
  percentage of control at effective dose: 64%
  value at effective dose: 280.3 ± 10.2
[9]
  IC50: 80 µM
  percentage of control at IC50 dose: 56%
  effective dose: 80 µM
  percentage of control at effective dose: 56%
  value at effective dose: 31.7 ± 2.1
